Source: the supplement of paper PMC10331698
± gives the standard deviation of the averaged measurements.

Experiments:
Experiment in all cases: level (log10 ratio to DMSO vehicle control); higher = higher biomarker level / cell amount than vehicle control
[1] = compound: O=C(O)CCC(F)(C(F)(F)F)C(F)(F)F [4,4-bis(Trifluoromethyl)-4-fluoropropanoic acid] (in DMSO)
Procedure: (§1)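 BioMAP Diversity Plus panel of 12 human primary cell co-culture systems (3C, 4H, LPS, SAg, BT, BF4T, BE3C, CASM3C, HDF3CGF, KF3CT, MyoF, Mphg). Compounds were added 1 h before stimulation and left for 24 h (MyoF 48 h; BT 72 h for soluble read-outs or 6 d for IgG). Biomarkers were read by ELISA, cytotoxicity by SRB, PBMC viability and proliferation by Alamar Blue. Each well value was divided by the mean of 8 DMSO control wells on the same plate and log10 transformed; duplicate blinded samples were tested at 4 concentrations.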

[2] = compound: O=S(=O)(O)CCC(F)(F)C(F)(F)C(F)(F)C(F)(F)C(F)(F)C(F)(F)C(F)(F)C(F)(F)F [8:2 Fluorotelomer sulfonic acid] (in DMSO)
Procedure: as §1

[3] = compound: O=C(O)C(F)(OC(F)(F)C(F)(F)C(F)(F)F)C(F)(F)F [Ammonium perfluoro-2-methyl-3-oxahexanoate] (in Water)
Procedure: as §1

[4] = compound: O=S(=O)(O)C(F)(F)C(F)(F)OC(F)(F)C(F)(F)F [Perfluoro(2-ethoxyethane)sulfonic acid] (in DMSO)
Procedure: as §1

[5] = compound: O=C(O)C(F)(F)C(F)(F)C(F)(F)OC(F)(F)F [Perfluoro(4-methoxybutanoic) acid] (in DMSO)
Procedure: as §1

[6] = compound: CCOC(=O)CC(=O)C(F)(F)C(F)(F)F [Ethyl pentafluoropropionyl acetate] (in DMSO)
Procedure: as §1

| Test System | level (log10) ([1]; 6700 nM) | level (log10) ([1]; 20000 nM) | level (log10) ([1]; 60000 nM) | level (log10) ([2]; 6700 nM) | level (log10) ([2]; 20000 nM) | level (log10) ([2]; 60000 nM) | level (log10) ([3]; 6700 nM) | level (log10) ([3]; 20000 nM) | level (log10) ([3]; 60000 nM) | level (log10) ([4]; 6700 nM) | level (log10) ([4]; 20000 nM) | level (log10) ([4]; 60000 nM) | level (log10) ([5]; 6700 nM) | level (log10) ([5]; 20000 nM) | level (log10) ([5]; 60000 nM) | level (log10) ([6]; 6700 nM) | level (log10) ([6]; 20000 nM) | level (log10) ([6]; 60000 nM) |
| --- | --- | --- | --- | --- | --- | --- | --- | --- | --- | --- | --- | --- | --- | --- | --- | --- | --- | --- |
| CASM3C:CD141/Thrombomodulin | -0.0525 ± 0.069 | -0.032 ± 0.041 | 0.0035 ± 0.019 | -0.0045 ± 0.029 | -0.026 ± 0.04 | -0.0265 ± 0.0035 | 0.113 ± 0.0057 | 0.0435 ± 0.11 | 0.035 ± 0.038 | 0.005 ± 0.011 | -0.015 ± 0.0071 | 0.023 ± 0.044 | 0.001 ± 0.035 | 0.007 ± 0.035 | -0.011 ± 0.044 | -0.005 ± 0.0071 | -0.0005 ± 0.00071 | -0.0115 ± 0.018 |
| CASM3C:CD142/Tissue Factor | -0.0325 ± 0.047 | -0.011 | 0.0385 ± 0.049 | -0.045 ± 0.0042 | -0.067 ± 0.027 | -0.0195 ± 0.03 | 0.022 ± 0.013 | -0.0045 ± 0.028 | -0.009 ± 0.089 | -0.023 ± 0.0085 | -0.0335 ± 0.035 | 0.045 ± 0.067 | 0.0005 ± 0.018 | -0.0175 ± 0.011 | -0.051 ± 0.018 | -0.0235 ± 0.046 | -0.008 ± 0.031 | 0.0035 ± 0.012 |
| CASM3C:CXCL8/IL-8 | -0.0115 ± 0.012 | -0.0135 ± 0.012 | -0.0195 ± 0.005 | 0.019 ± 0.018 | -0.0065 ± 0.012 | 0.0035 ± 0.013 | 0.005 ± 0.0042 | 0.034 ± 0.024 | 0.056 ± 0.024 | -0.0095 ± 0.00071 | -0.0055 ± 0.0078 | 0.0265 ± 0.005 | 0.002 ± 0.0099 | -0.0065 ± 0.013 | 0.0165 ± 0.011 | 0.0045 ± 0.0035 | 0 | 0.0035 ± 0.0078 |
| CASM3C:CXCL9/MIG | -0.0035 ± 0.005 | -0.0165 ± 0.00071 | 0.018 ± 0.047 | -0.03 ± 0.02 | -0.032 ± 0.0071 | 0 ± 0.021 | 0.039 ± 0.038 | 0.05 ± 0.0071 | 0.0595 ± 0.015 | -0.0205 ± 0.0064 | -0.0105 ± 0.0035 | 0.0145 ± 0.057 | -0.0025 ± 0.016 | -0.0105 ± 0.0078 | 0.015 ± 0.0028 | -0.018 ± 0.03 | -0.0145 ± 0.0064 | -0.0035 ± 0.0092 |
| CASM3C:HLA-DR | -0.035 ± 0.0014 | -0.0285 ± 0.012 | 0.0035 ± 0.012 | 0.0155 ± 0.023 | -0.009 ± 0.024 | -0.015 ± 0.017 | 0.0195 ± 0.054 | 0.01 ± 0.059 | 0.004 ± 0.0071 | 0.011 ± 0.0099 | 0 ± 0.02 | -0.005 ± 0.016 | -0.016 ± 0.014 | -0.006 ± 0.023 | -0.0095 ± 0.00071 | -0.0125 ± 0.0064 | -0.0185 ± 0.015 | -0.015 ± 0.014 |
| CASM3C:IL-6 | -0.02 ± 0.0014 | -0.0225 ± 0.005 | 0.009 ± 0.061 | 0.0025 ± 0.029 | -0.0075 ± 0.0064 | -0.0005 ± 0.018 | 0.0075 ± 0.005 | -0.052 ± 0.042 | -0.0375 ± 0.047 | -0.024 ± 0.0028 | -0.041 ± 0.033 | -0.0725 ± 0.015 | -0.0215 ± 0.015 | -0.0205 ± 0.016 | -0.001 ± 0.031 | -0.022 ± 0.011 | -0.021 ± 0.023 | 0.009 ± 0.057 |
| CASM3C:LDLR | -0.0085 ± 0.037 | 0.0045 ± 0.036 | 0.018 ± 0.014 | -0.0005 ± 0.0064 | 0.0135 ± 0.013 | 0.0415 ± 0.026 | -0.061 ± 0.057 | -0.032 ± 0.04 | -0.0545 ± 0.021 | -0.006 ± 0.0014 | -0.0085 ± 0.00071 | 0.0005 ± 0.023 | -0.0135 ± 0.011 | -0.0245 ± 0.023 | 0.0035 ± 0.044 | -0.0125 ± 0.019 | -0.002 ± 0.0085 | 0.0035 ± 0.013 |
| CASM3C:M-CSF | -0.0145 ± 0.042 | 0.024 ± 0.048 | 0.0875 ± 0.056 | 0.0005 ± 0.015 | -0.0115 ± 0.0021 | 0.037 ± 0.028 | -0.049 ± 0.016 | -0.0405 ± 0.0092 | -0.0405 ± 0.022 | -0.0075 ± 0.011 | 0 ± 0.031 | 0.0615 ± 0.057 | -0.027 ± 0.021 | -0.035 ± 0.021 | 0.029 ± 0.034 | -0.0145 ± 0.00071 | -0.0175 ± 0.0064 | -0.0025 ± 0.028 |
| CASM3C:PAI-I | 0.0075 ± 0.025 | 0.007 ± 0.013 | 0.0035 ± 0.0021 | -0.0015 ± 0.019 | 0.012 ± 0.018 | 0.0095 ± 0.012 | -0.007 ± 0.0085 | -0.0005 ± 0.0092 | -0.0025 ± 0.013 | 0.004 ± 0.0071 | 0.0015 ± 0.012 | 0.015 ± 0.011 | -0.0015 ± 0.0021 | 0.0005 ± 0.0035 | 0.0095 ± 0.0064 | 0.002 ± 0.0057 | 0.0055 ± 0.012 | 0.007 ± 0.0014 |
| CASM3C:Proliferation | 0.002 ± 0.013 | -0.012 ± 0.0099 | -0.003 ± 0.023 | 0.005 ± 0.072 | 0.0065 ± 0.022 | 0.0245 ± 0.023 | -0.07 ± 0.085 | -0.095 ± 0.02 | -0.104 ± 0.065 | -0.0405 ± 0.052 | -0.0015 ± 0.018 | 0.048 ± 0.03 | 0.0025 ± 0.076 | -0.051 ± 0.047 | -0.0245 ± 0.069 | -0.049 ± 0.04 | -0.014 ± 0.0085 | -0.0155 ± 0.00071 |
| CASM3C:SRB | -0.007 ± 0.0014 | -0.0005 ± 0.0078 | -0.0025 ± 0.0035 | 0.0075 ± 0.005 | 0.0055 ± 0.005 | 0.0105 ± 0.0035 | -0.007 ± 0.0057 | -0.008 ± 0.0014 | -0.0105 ± 0.0064 | -0.002 ± 0.0028 | -0.003 ± 0.0028 | 0.001 ± 0.0071 | -0.001 ± 0.0014 | -0.001 ± 0.0028 | -0.0045 ± 0.011 | 0.0035 ± 0.0021 | 0.0015 ± 0.0035 | 0.002 ± 0.011 |
| CASM3C:Serum Amyloid A | -0.008 ± 0.013 | 0.064 ± 0.059 | 0.159 ± 0.0057 | 0.0195 ± 0.0064 | 0.0475 ± 0.025 | 0.096 ± 0.0042 | -0.031 ± 0.04 | -0.034 ± 0.03 | -0.0005 ± 0.049 | 0.029 ± 0.044 | 0.133 ± 0.18 | 0.344 ± 0.22 | -0.0435 ± 0.015 | -0.0465 ± 0.0064 | -0.0075 ± 0.081 | 0.0005 ± 0.0035 | -0.012 ± 0.0014 | 0.0155 ± 0.029 |
| HDF3CGF:CCL2/MCP-1 | -0.014 ± 0.016 | -0.01 ± 0.017 | 0.005 ± 0.0042 | 0.0005 ± 0.022 | -0.008 ± 0.03 | 0.0115 ± 0.022 | 0.011 ± 0.025 | 0.0285 ± 0.0021 | 0.019 ± 0.0028 | 0.014 ± 0.0057 | 0.0175 ± 0.0078 | 0.035 ± 0.031 | 0.0035 ± 0.035 | 0.012 ± 0.018 | 0.019 ± 0.064 | -0.022 ± 0.0042 | -0.0135 ± 0.005 | 0.009 ± 0.047 |
| HDF3CGF:CD54/ICAM-1 | 0.006 ± 0.0099 | -0.009 ± 0.041 | -0.0025 ± 0.005 | -0.012 ± 0.017 | -0.04 ± 0.011 | -0.0805 ± 0.012 | -0.0075 ± 0.015 | -0.0245 ± 0.005 | -0.0555 ± 0.012 | -0.0185 ± 0.0035 | -0.0205 ± 0.00071 | -0.012 ± 0.018 | -0.0185 ± 0.0078 | -0.0275 ± 0.0064 | -0.0215 ± 0.0092 | 0.006 ± 0.017 | 0.0055 ± 0.0092 | -0.012 ± 0.034 |
| HDF3CGF:CD106/VCAM-1 | -0.0525 ± 0.069 | -0.0555 ± 0.12 | -0.0835 ± 0.12 | 0.0015 ± 0.091 | 0.007 ± 0.073 | -0.072 ± 0.045 | -0.039 ± 0.021 | -0.044 ± 0.027 | -0.131 ± 0.016 | -0.01 ± 0.05 | -0.0365 ± 0.09 | -0.016 ± 0.073 | -0.01 ± 0.027 | -0.0185 ± 0.011 | -0.036 ± 0.059 | 0.007 ± 0.011 | -0.0025 ± 0.005 | 0.006 ± 0.02 |
| HDF3CGF:CXCL8/IL-8 | -0.0105 ± 0.013 | -0.0005 ± 0.0092 | 0.0065 ± 0.03 | -0.0145 ± 0.0064 | -0.0045 ± 0.0035 | -0.0015 ± 0.026 | -0.0135 ± 0.015 | 0.001 ± 0.011 | 0.0045 ± 0.0035 | -0.015 ± 0.0028 | -0.0075 ± 0.0064 | 0.0045 ± 0.0035 | 0.005 ± 0.0057 | 0.0015 ± 0.00071 | 0.008 | -0.005 ± 0.0028 | -0.0045 ± 0.011 | -0.002 ± 0.021 |
